In article PMC12036557, “Functional Imaging of CYP3A4 at Multiple Dimensions Using an AI‐Driven High Performance Fluorogenic Substrate” (Small (Weinheim an Der Bergstrasse, Germany), 2025):
Like-named read-outs stand apart in the source and are kept apart here.

Columns and labels:
[1] = tested on: CYP3A4; experiment: In vivo inhibitory effect against CYP3A4 (pharmacokinetics of NFa with inhibitor); set-up: species or system C57 mice; settings: inhibitor 50 mg/kg i.g., NFa 20 mg/kg i.g., mice
[2] = target: T1, CYP3A4 (Homo sapiens, UniProt P08684); experiment: NFa-based screening and characterizing of hCYP3A4 inhibitors in HLMs; settings: human, human liver microsomes, pH 7.4, probe NFa (4-hydroxylation to 4-HNFa)
[3] = target: hCYP3A4 in HLMs (Homo sapiens, UniProt P08684); experiment: as above
[4] = target: T1, CYP3A4; experiment: Inhibitory effect of D13 in CHO-3A4 stably transfected cell line; type: cell-based; set-up: expressed in transfected cells; host or cells: CHO-3A4 stably transfected cell line; settings: CHO-3A4 cells, D13 1 h, NFa 10 μM 30 min; read-out: inhibitory effect (IC50) in living cells
[5] = tested on: CYP3A4; experiment: Liver organ imaging in the presence of CYP3A4 inhibitor (ex vivo); settings: mouse, excised whole liver tissue (ex vivo), probe NFa (50 µM); whole mice liver, inhibitor 1 h, NFa 50 µM 30 min; read-out: IC50 (4‐HNFa levels in liver tissue)
[6] = target: T1, CYP3A4; experiment: NFa-based inhibition assay in recombinant hCYP3A4; type: biochemical; set-up: purchased Cypex; settings: read-out: IC50 against CYP3A4‐catalyzed NFa 4‐hydroxylation
[7] = target: T1, CYP3A4; experiment: Enzyme kinetic analyses of NFs 4-hydroxylation by hCYP3A4; type: biochemical; set-up: purchased Cypex
[8] = target: T2, P-gp (Homo sapiens, UniProt P08183); experiment: Identification of the P-gp substrates in living cells (MDR1-MDCK); type: cell-based; settings: with/without verapamil
T2 construct: expressed in transfected cells; host or cells: MDR1-MDCK

[9] = target: T1, CYP3A4; experiment: Functional imaging of hCYP3A4 in living cells; type: cell-based; settings: MCF‐7 and Hep3B cells
[10] = In vivo inhibitory effect against CYP3A4 (pharmacokinetics of NFa with inhibitor); set-up: species or system C57 mice; settings: C57, mouse, plasma, po, 20 mg/kg, mice plasma; for AUC: read-out: AUC(0‐inf)
[11] = tested on: MCF‐7, Hep3B, and U87 cells; experiment: Cytotoxicity assays; type: cell-based
[12] = Safety test of NFa in healthy mice; type: in vivo, C57BL/6J mice; settings: oral 100 mg kg^−1 per day, 14 consecutive days
[13] = Optical properties, photostability and pH stability of NFa and 4-HNFa; type: physicochemical; set-up: maximum UV absorption: unit not given here
[14] = tested on: FMO1, FMO3, FMO5; experiment: Oxidative metabolism of NFa in FMOs; type: in vitro ADME; settings: NFa 20 μM, NADPH, 30 min
[15] = target: T1, CYP3A4; experiment: Fluorescence response of NFa toward hCYP3A4; type: biochemical; set-up: purchased Cypex
[16] = tested on: NCM460 cells; experiment: Cell-membrane permeability in NCM460 cells; type: cell-based; settings: 20 μM, 60 min
[17] = tested on: panel of human recombinant cytochrome P450 enzymes; experiment: P450 reaction phenotyping analysis; type: biochemical; settings: each recombinant CYP 2.5 nM, 37 °C, 30 min
[18] = target: T3, aldehyde oxidase (AO) (Homo sapiens, UniProt Q06278); experiment: Oxidative metabolism of NFa in AO (human liver cytosol); type: in vitro ADME; settings: NFa 20 μM, human liver cytosol without NADPH, 30 min
T3 construct: The oxidative metabolism of NFa in human liver cytosol (HLC) without NADPH; from tissue; host or cells: human liver cytosol
T3 sequence (Q06278 1-1338): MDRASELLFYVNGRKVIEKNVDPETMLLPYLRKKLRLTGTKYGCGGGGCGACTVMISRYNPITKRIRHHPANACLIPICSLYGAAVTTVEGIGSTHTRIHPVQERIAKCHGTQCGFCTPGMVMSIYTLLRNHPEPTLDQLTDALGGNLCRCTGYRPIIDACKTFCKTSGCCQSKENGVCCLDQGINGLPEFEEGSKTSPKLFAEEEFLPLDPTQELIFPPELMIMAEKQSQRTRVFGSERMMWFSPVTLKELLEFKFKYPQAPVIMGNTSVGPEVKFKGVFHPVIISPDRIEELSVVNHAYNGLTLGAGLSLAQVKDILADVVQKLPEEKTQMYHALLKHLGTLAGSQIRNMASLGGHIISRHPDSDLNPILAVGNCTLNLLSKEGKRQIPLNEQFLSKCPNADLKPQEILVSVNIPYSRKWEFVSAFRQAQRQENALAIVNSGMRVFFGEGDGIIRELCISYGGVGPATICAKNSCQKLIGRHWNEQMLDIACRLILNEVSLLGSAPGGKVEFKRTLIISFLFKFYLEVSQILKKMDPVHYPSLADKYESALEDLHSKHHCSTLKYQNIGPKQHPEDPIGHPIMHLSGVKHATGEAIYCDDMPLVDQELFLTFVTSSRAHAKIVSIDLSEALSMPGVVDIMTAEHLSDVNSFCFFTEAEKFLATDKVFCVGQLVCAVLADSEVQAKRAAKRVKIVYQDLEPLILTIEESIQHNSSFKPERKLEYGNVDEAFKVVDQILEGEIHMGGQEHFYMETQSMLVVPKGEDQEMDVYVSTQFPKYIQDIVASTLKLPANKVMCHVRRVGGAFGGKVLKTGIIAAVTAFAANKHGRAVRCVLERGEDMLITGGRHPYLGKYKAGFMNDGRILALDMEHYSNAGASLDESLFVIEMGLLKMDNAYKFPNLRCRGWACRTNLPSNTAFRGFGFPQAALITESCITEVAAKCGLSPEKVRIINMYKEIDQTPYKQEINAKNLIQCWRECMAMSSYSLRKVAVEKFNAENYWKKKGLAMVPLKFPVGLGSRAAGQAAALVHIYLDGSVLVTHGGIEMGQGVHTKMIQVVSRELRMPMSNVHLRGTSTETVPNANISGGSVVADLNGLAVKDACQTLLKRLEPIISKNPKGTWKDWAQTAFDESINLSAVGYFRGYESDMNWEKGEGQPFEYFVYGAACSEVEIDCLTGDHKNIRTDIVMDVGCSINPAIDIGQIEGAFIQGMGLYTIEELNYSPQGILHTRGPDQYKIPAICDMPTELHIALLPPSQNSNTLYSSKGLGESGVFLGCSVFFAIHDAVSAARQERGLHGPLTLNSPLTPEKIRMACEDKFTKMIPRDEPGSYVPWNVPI

[19] = Pharmacokinetics and oral bioavailability of NFa; type: in vivo; settings: mice
[20] = tested on: Hep3B cells; experiment: Cell-membrane permeability in Hep3B cells; type: cell-based; settings: 20 μM, 60 min
[21] = tested on: CYP3A4; set-up: method as in PMID 22971642; settings: RTV 50 mg kg^−1, mice; cited from earlier work
[22] = tested on: CYP3A; experiment: Functional imaging of CYP3A4 in mouse liver tissue slices; settings: pre‐incubated 1 h, inhibitor 20 µM
[23] = target: T1, CYP3A4; experiment: in vitro; settings: pH 7.4
[24] = NFa 20 mg/kg i.g. with D13 50 mg/kg i.g.
[25] = NFa 20 mg/kg i.g. with RTV 50 mg/kg i.g.
[26] = NFa 20 mg/kg i.g., control group CMC‐Na
[27] = mouse, plasma, po, 20 mg/kg, i.g.

T1 sequence (P08684 whole entry): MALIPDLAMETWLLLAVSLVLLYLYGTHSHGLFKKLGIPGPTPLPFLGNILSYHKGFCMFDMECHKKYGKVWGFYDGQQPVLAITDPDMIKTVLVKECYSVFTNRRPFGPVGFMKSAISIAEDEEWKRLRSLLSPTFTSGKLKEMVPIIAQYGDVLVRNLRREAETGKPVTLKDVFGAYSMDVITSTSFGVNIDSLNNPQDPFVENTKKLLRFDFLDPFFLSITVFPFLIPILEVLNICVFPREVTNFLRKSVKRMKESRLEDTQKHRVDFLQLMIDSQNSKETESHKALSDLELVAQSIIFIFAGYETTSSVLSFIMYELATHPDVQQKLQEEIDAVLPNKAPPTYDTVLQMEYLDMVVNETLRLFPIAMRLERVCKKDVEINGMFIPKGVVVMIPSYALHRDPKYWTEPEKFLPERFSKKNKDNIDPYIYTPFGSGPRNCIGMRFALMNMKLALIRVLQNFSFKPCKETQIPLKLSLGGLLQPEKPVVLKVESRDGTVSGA
Chain of hCYP3A4 in HLMs (P08684 whole entry): as above
T2 sequence (P08183 whole entry): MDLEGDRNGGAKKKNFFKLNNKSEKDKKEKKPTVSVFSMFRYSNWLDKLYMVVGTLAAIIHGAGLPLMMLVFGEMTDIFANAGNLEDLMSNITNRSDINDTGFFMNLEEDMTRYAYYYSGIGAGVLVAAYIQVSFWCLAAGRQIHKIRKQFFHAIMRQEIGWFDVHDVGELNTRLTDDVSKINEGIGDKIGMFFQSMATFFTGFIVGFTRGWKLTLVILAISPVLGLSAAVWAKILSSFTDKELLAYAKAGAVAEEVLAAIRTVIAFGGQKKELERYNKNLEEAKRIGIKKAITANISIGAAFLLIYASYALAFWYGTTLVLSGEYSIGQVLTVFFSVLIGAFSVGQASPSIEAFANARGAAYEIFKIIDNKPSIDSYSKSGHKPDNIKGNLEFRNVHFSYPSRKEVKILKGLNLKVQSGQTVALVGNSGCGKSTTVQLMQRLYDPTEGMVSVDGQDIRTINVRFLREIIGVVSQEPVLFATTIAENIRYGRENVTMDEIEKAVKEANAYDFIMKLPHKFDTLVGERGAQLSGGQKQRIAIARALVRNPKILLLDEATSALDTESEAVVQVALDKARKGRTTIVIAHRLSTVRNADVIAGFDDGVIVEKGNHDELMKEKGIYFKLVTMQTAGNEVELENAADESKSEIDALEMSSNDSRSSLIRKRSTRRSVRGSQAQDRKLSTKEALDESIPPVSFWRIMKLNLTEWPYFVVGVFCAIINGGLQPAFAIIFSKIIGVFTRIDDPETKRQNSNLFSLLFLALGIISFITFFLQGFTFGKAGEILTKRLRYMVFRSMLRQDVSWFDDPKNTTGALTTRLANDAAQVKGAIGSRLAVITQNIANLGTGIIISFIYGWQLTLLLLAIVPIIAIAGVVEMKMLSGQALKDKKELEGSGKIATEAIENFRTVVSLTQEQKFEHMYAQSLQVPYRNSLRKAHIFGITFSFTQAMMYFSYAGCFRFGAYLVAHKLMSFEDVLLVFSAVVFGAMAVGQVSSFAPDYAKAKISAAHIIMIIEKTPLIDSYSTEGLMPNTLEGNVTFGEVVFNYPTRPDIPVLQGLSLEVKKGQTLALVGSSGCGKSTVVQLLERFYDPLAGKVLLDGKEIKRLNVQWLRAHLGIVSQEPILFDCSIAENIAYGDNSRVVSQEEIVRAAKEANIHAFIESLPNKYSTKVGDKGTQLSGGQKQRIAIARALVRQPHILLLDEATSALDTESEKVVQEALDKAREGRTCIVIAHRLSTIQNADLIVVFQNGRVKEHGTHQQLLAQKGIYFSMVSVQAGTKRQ

In the case of O=C(/C=C/c1ccc2cnccc2c1)c1ccc(N2CCCC2)cc1 [D13, (E)-3-(isoquinolin-6-yl)-1-(4-(pyrrolidin-1-yl)phenyl)prop-2-en-1-one], the “Ratio of AUC(0‐inf) of NFa (inhibitor group / control group)” value [1] is reported as 7.22, the “Ratio of C max of NFa (inhibitor group / control group)” value [1] is reported as 2.37 and the “Ratio of T max of NFa (inhibitor group / control group)” value [1] is reported as 0.56. The “Ratio of t 1/2 of NFa (inhibitor group / control group)” value [1] was 2.87, the activity at 30 min, 1 µM [2] was 4.08% and the IC50 [3] was 13.6 nM. For the same molecule, the Residual activity ([3]; inhibitor 1 μM, HLMs, NFa as fluorogenic substrate) was “completely inhibited”, the IC50 [4] was 25.4 nM and the IC50 [5] was 270 ± 50 nM. It also gave an IC50 [6] of 10.9 nM.
With O=C1c2cccc3cccc(c23)C(=O)N1Cc1cscn1 [NFa, N-(4-Thiazolemethanamino)-naphtahlimide] the K m [7] was 13.33 ± 1.01 µM, the “P‐gp substrate status” value [8] was “non‐substrate for P‐gp” and the “Pearson's coefficient of co‐localization with ER‐Tracker Red” value [9] was 0.99. It also gave a Cmax [10, 24] of 498 ± 209 ng/mL, a Tmax [10, 24] of 0.7 ± 0.27 h and a half-life [10, 24] of 6.37 ± 4.65 h. For the same molecule, the AUC [10, 24] was 4630 ± 2230 ng·h/mL, the Cmax [10, 25] was 494 ± 131 ng/mL and the Tmax [10, 25] was 0.95 ± 0.67 h. It also gave a half-life [10, 25] of 8.09 ± 7.52 h, an AUC [10, 25] of 5800 ± 5000 ng·h/mL and a Cmax [10, 26] of 210 ± 125 ng/mL. It also gave a Tmax [10, 26] of 1.25 ± 0.61 h, a half-life [10, 26] of 2.22 ± 0.94 h and an AUC [10, 26] of 642 ± 146 ng·h/mL. The cytotoxicity [11] was “weak cytotoxicity”, the “biochemical assays and H&E staining findings” value [12] was “no haematotoxicity, organ injuries, or apparent abnormalities” and the body weight [12] was “gradual increase”. The mortality [12] was “no mortality”, the “Molar extinction coefficient ε” value [13] was 44300 M⁻¹ cm⁻¹ and the “maximum UV absorption” value [13] was 340. The maximum fluorogenic emission [13] was 390 nm, the “participation of FMOs in the oxidative metabolism” value [14] was “did not participate” and the “limit of detection for sensing hCYP3A4” value [15] was 0.047 nM. The “interference from endogenous fatty acids, amino acids, and cations on NFa 4‐hydroxylation by hCYP3A4” value ([15]; NFa 10 μM, 37 ℃, 30 min) was “no interference”, the “enhancement in fluorescence emission ≈555 nM” value ([15]; NFa 10 µM, hCYP3A4 10 nM, 37 °C, 30 min, λex 450) was 154 fold and the “enhancement of cell‐membrane permeability versus NEN” value [16] was 28 fold. For the same molecule, the “isoform specificity as P450 substrate” value [17] was “highly specific substrates for hCYP3A4”, the “participation of AO in the oxidative metabolism” value [18] was “did not participate” and the Oral bioavailability ([19]; 20 mg/kg i.g. vs 2 mg/kg i.v.) was 15.27%. It also gave an AUC(0-inf) ([19]; mouse, plasma, iv, 2 mg/kg) of 439 ± 40.7 ng·h/mL, a Cmax ([19]; mouse, plasma, iv, 2 mg/kg) of 913 ± 116 ng/mL and a Tmax ([19]; mouse, plasma, iv, 2 mg/kg) of 0.083 h. For the same molecule, the half-life ([19]; mouse, plasma, iv, 2 mg/kg) was 1.24 ± 0.39 h, the bioavailability ([19]; mouse, plasma, oral, 20 mg/kg, 20 mg/kg i.g. vs 2 mg/kg i.v.) was 15.3% and the AUC(0-inf) [19, 27] was 670 ± 232 ng·h/mL. The Cmax [19, 27] was 250 ± 90 ng/mL, the Tmax [19, 27] was 1.17 ± 0.41 h and the half-life [19, 27] was 1.55 ± 0.61 h. The “enhancement of cell‐membrane permeability versus NEN” value [20] was 5.6 fold.
For CC(C)c1nc(CN(C)C(=O)N[C@H](C(=O)N[C@@H](Cc2ccccc2)C[C@H](O)[C@H](Cc2ccccc2)NC(=O)OCc2cncs2)C(C)C)cs1 [RTV, Ritonavir], the “increase of AUCinf of midazolam (oral) when co‐administered with RTV” value [21] is listed as “five‐fold”.
For CC(=O)N1CCN(c2ccc(OCC3COC(Cn4ccnc4)(c4ccc(Cl)cc4Cl)O3)cc2)CC1 (centres unmarked) [KET, ketoconazole, reference compound], the “effect on NFa green signals in mouse liver slices” value [22] was “significantly blocked” and the activity at 30 min, 1 µM [23] was 1.91%.
